These are literature values, as cited in patent US20050202566A1, “Device and method for determining parameters” (priority 2002, published 2005).

The series relates to thrombus formation. The following applies: ex vivo flow models using whole blood; with increasing shear.

With `O=C(O)COc1ccc(CCNS(=O)(=O)c2ccccc2)s1` [Linotroban], the “inhibition of thrombus formation as a function of shear” value is reported as “increasingly inhibit thrombus formation”.

In the case of `CC(=O)Oc1ccccc1C(=O)O` [aspirin], the “inhibition of thrombus formation as a function of shear” value is “increasingly inhibit thrombus formation”.
